Test results: US20260265244A1, “HETEROCYCLIC COMPOUNDS AS STING ANTAGONISTS” (Boehringer Ingelheim International GmbH, priority 2022, published 2026)

Experiments:
human STING WT (R232) = biological target: T1, human STING WT (R232) (Homo sapiens, UniProt Q86WV6, H232R); test: Human STING HTRF binding assay (competitive, Cisbio 64BDSTGPEG)
T1 construct: purchased Cisbio 64BDSTGPEG
Protocol: Binders to human STING WT (R232) were identified using a competitive HTRF assay format (Cisbio 64BDSTGPEG), which uses d2-labeled STING ligand, a 6His (SEQ ID NO: 2) tagged human STING protein, and an anti 6His (SEQ ID NO: 2) Cryptate-labeled antibody. Compounds compete with the STING ligand-d2 and thereby prevents FRET from occurring, which can be measured by an EnVision™ reader (PerkinElmer).
Assay method: Compounds were delivered as 10 mM DMSO solution, serially diluted by an Agilent Bravo Workstation and transferred to the 384 well assay plate (Perkin Elmer #6005359) using a Cybiwell dispenser. Typically, 8 concentrations were used with the highest concentration at 10 μM or 1 μM in the final assay volume followed by ~1:5 dilution steps. DMSO concentration was set to 1% in the final assay volume. The 384 well assay plate contained 20 test compounds and DMSO in column 23 and 24. A cGAMP standard dilution row was prepared according to the manufacturer and transferred to each assay plate. After transfer of compound solution or dilution buffer for negative (high) and positive (low) controls, 5 μl of the human STING protein (cyclic binding domain (residues 138-379) of the WT R232 human version, fused to a 6 His tag (SEQ ID NO: 2) at the Nter part; 1:50 dilution in detection buffer) were dispensed to all wells except of the positive control, which received detection buffer only. Plates were the centrifuged for 20 sec at 1000 rpm. After that, 10 μl of Anti-6His-Cryptate antibody/Sting ligand-d2 mix was added to all wells using a Multidrop combi dispenser, followed by another sec/1000 rpm centrifugation step. After an incubation of the plates for 180 min at room temperature, […] at […] (HTRF ratio) was measured using an Envison Reader (PerkinElmer).
Data evaluation and calculation: For data evaluation and calculation, HTRF ratios were calibrated using the cGAMP standard curve. After that, the measurement of the low control was set as 0% control and the measurement of the high control was set as 100% control. The IC50 values were calculated using the standard 4 parameter logistic regression formula. Calculation: [y=(a−d)/(1+(x/c)^b)+d], a=low value, d=high value; x=conc M; c=IC50 M; b=slope;

[1] = test system: STING inhibition in human whole blood (IFNα2α production); test: Human whole blood assay (HWBA): cGAMP-stimulated IFNα2α production; assay type: cell-based; conditions: Homo sapiens
Method in brief: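 Na-citrate human whole blood from ≥3 healthy donors, preincubated 60 min at room temperature with compound (8 concentrations, top 10 μM, ~1:5 steps, 0.1% DMSO), then stimulated with cGAMP and incubated 22 h at 37 °C. Plasma IFNα2α measured by MSD immunoassay; % control versus stimulated/unstimulated wells, IC50 by 4-parameter logistic fit.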

T1 sequence (Q86WV6 138-379 H232R): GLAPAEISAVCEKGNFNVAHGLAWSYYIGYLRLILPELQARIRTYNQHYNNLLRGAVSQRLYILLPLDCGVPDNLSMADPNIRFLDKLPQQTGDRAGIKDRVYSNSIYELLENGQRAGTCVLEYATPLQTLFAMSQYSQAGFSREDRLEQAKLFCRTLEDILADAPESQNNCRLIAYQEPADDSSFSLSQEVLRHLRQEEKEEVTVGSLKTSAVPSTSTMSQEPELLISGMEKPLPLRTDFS

| Structure (SMILES) | IC50 (human STING WT (R232)) | IC50 [1] |
| --- | --- | --- |
| Cc1c(C2CC2)c(-c2c(F)ccc3nn(C[C@H](O)c4ccccc4)cc23)nn1-c1cc2cn(C)nc2nc1C1CC1 [Example 35, (1R)-2-[4-(4-cyclopropyl-1-{6-cyclopropyl-2-methyl-2H-pyrazolo[3,4-b]pyridin-5-yl}-5-methyl-1H-pyrazol-3-yl)-5-fluoro-2H-indazol-2-yl]-1-phenylethan-1-ol] | 19.3 nM | 130 nM |
| Cc1nc2nn(CCCN3CCC(F)(F)C3)cc2cc1-n1nc(-c2cccc3nn(C[C@H](O)c4ccccc4)cc23)c(C(C)C)c1C [Example 40, (1R)-2-[4-(1-{2-[3-(3,3-difluoropyrrolidin-1-yl)propyl]-6-methyl-2H-pyrazolo[3,4-b]pyridin-5-yl}-5-methyl-4-(propan-2-yl)-1H-pyrazol-3-yl)-2H-indazol-2-yl]-1-phenylethan-1-ol] | 28.4 nM | 140 nM |
| CNCc1nc2nn(C)cc2cc1-n1nc(-c2cccc3nn(C[C@H](O)c4ccccc4)cc23)c(C(C)C)c1C [Example 42, (1R)-2-[4-(5-methyl-1-{2-methyl-6-[(methylamino)methyl]-2H-pyrazolo[3,4-b]pyridin-5-yl}-4-(propan-2-yl)-1H-pyrazol-3-yl)-2H-indazol-2-yl]-1-phenylethan-1-ol] | 16.7 nM | 140 nM |
| Cc1nc2nn(C)cc2cc1-n1nc(-c2cccc3nn(C[C@H](O)c4ccc(F)c(F)c4)cc23)c(C(C)C)c1C [Example 44, (1R)-1-(3,4-difluorophenyl)-2-[4-(1-{2,6-dimethyl-2H-pyrazolo[3,4-b]pyridin-5-yl}-5-methyl-4-(propan-2-yl)-1H-pyrazol-3-yl)-2H-indazol-2-yl]ethan-1-ol] | 16.9 nM | 140 nM |

The next molecules have a lower IC50 (human STING WT (R232)) than those just listed; values first:

| IC50 (human STING WT (R232)) | IC50 [1] | Structure (SMILES) |
| --- | --- | --- |
| 15.4 nM | 130 nM | Cc1nc2nn(CCN(C)C)cc2cc1-n1nc(-c2cccc3nn(C[C@H](O)c4ccccc4)cc23)c(C(C)C)c1C [Example 39, (1R)-2-[4-(1-{2-[2-(dimethylamino)ethyl]-6-methyl-2H-pyrazolo[3,4-b]pyridin-5-yl}-5-methyl-4-(propan-2-yl)-1H-pyrazol-3-yl)-2H-indazol-2-yl]-1-phenylethan-1-ol] |
| 14.6 nM | 130 nM | CNC(=O)CO[C@@H](Cn1cc2c(-c3nn(-c4cc5cn(C)nc5nc4C)c(C)c3C(C)C)cccc2n1)c1ccccc1 [Example 36, 2-[(1R)-2-[4-(1-{2,6-dimethyl-2H-pyrazolo[3,4-b]pyridin-5-yl)-5-methyl-4-(propan-2-yl)-1H-pyrazol-3-yl)-2H-indazol-2-yl]-1-phenylethoxy]-N-methylacetamide] |
| 7.1 nM | 120 nM | Cn1cc2cc(-c3nc(-c4cccc5nn(C[C@H](O)c6ccccc6)cc45)c(C4CC4)n3C)c(OC(F)F)cc2n1 [Example 34, (1R)-2-(4-{5-cyclopropyl-2-[6-(difluoromethoxy)-2-methyl-2H-indazol-5-yl]-1-methyl-1H-imidazol-4-yl}-2H-indazol-2-yl)-1-phenylethan-1-ol] |
| 6.4 nM | 140 nM | Cn1cc2cc(-c3nc(-c4cccc5nn(C[C@H](O)c6ccc(OCCC(C)(C)O)cc6)cc45)c(C4CC4)n3C)c(C3CC3)nc2n1 [Example 41, 4-{4-[(1R)-2-[4-(5-cyclopropyl-2-{6-cyclopropyl-2-methyl-2H-pyrazolo[3,4-b]pyridin-5-yl}-1-methyl-1H-imidazol-4-yl)-2H-indazol-2-yl]-1-hydroxyethyl]phenoxy}-2-methylbutan-2-ol] |
| 5.5 nM | 130 nM | Cc1nc2nn(CCO)cc2cc1-n1nc(-c2cccc3nn(C[C@H](O)c4ccccc4)cc23)c(C(C)C)c1C [Example 37, (1R)-2-(4-{1-[2-(2-hydroxyethyl)-6-methyl-2H-pyrazolo[3,4-b]pyridin-5-yl]-5-methyl-4-(propan-2-yl)-1H-pyrazol-3-yl}-2H-indazol-2-yl)-1-phenylethan-1-ol] |
